Measurements taken from publication PMC6950057, “Toxicity, Pharmacokinetics, and Gut Microbiome of Oral Administration of Sesterterpene MHO7 Derived from a Marine Fungus” (Marine Drugs, 2019).
Read-outs that look alike come from different tables or passages of the source.

Experiments:
[1] = Stability in simulated intestinal fluid (SIF); type: in vitro ADME; settings: for percentage concentration remaining in SIF: at 8 h
Method: SGF was prepared with modifications according to Lee et al. (2012) by mixing 100 mL of distilled water with a pH value set to 2.0 with hydrochloric acid and 1 g pepsin solution (800–2000 U/mg of protein). SIF was produced according to USP specifications (Test Solutions, United States Pharmacopeia 35, NF 30, 2012). Monobasic potassium phosphate (0.68 g) was dissolved in 25 mL of water. Then, 7.7 mL of 0.2 M NaOH was added to adjust the pH to 6.8. To this, 1 g of pancreatin was added and shaken gently until dissolved and the volume adjusted to 100 mL with water. Pancreatin was added after adjusting the pH of the solution to 6.8 to avoid precipitation of the enzyme.
Aliquots (199 µL) of SGF and SIF were placed in 1.5 mL microcentrifuge tubes and incubated at 37 °C for 10 min in a water bath, respectively. Different concentrations of MHO7 (1 µL) were added to each of the above microcentrifuge tubes to start the reaction with being incubated at 37 °C at 250 rpm in a shaking water bath. The reaction was stopped by adding ice ACN (800 µL) to each tube at intervals of 0, 0.5, 1, 2, 4, 6, and 8 h. The samples were vortexed for 15 min and centrifuged at 4 °C and 15,000 rpm for 15 min. After centrifuging the supernatant layer was taken directly for LC-MS analysis. Each experiment was carried out in triplicate, and average values were plotted. QC samples were prepared in the same way of inactivating pepsin in SGF incubation system at the concentrations of 1, 0.1 and 0.01 μM·L^−1 for HQC, MQC and LQC, respectively.

[2] = Tissue distribution after single oral dose; type: in vivo, mice; settings: oral 500 mg·kg^−1, female mice; for concentration at 1 h / concentration at 4 h / concentration at 8 h / concentration at 12 h / concentration at 20 h / concentration at 30 h: KM, mouse
Method: The animals and treatment methods were the same as in the pharmacokinetic studies. Afterwards, the biological samples (n = 6 per group) were collected at 1, 4, 8, 12, 20, and 30 h, and the tissues including heart, liver, spleen, lung, kidney, stomach, intestine, brain, muscle (hind limb), fat (white adipose tissue ), reproductive organs (uterus, fallopian tube and ovary) stomach and its contents, and intestine and its contents, and the blood samples were simultaneously collected. All the tissues were washed with cold physiological saline (4 °C), excess fluid blotted, accurately weighed, and subjected to the processing as described in the sample preparation. QC samples and standard curve series solutions were prepared in the same way of blank gastrointestinal contents and livers, respectively. The concentrations of HQC, MQC, and LQC in mice tissues were 10, 1, and 0.1 μM·L^−1, respectively, and the concentrations of standard curve series solutions were 50, 25, 10, 5, 2.5, 1, 0.5, 0.25, 0.1, and 0.005 μM·L^−1 for high and low concentrations of standard curves.

In the case of `CC(C)=C/C=C/[C@H](C)[C@H]1CC[C@]2(C)C[C@@H]3C(C)=CC(=O)[C@H]3/C(C=O)=C\C[C@@H]12` [MHO7, 6-epi-ophiobolin G], the “percentage concentration remaining in SIF” value ([1]; MHO7 added at 0.05 mM·L^−1, 37 °C) is reported as 94.83 ± 1.14%, the “percentage concentration remaining in SIF” value ([1]; initial addition 0.5 mM·L^−1, 37 °C) is reported as 89.74 ± 0.86% and the “stability in SIF” value ([1]; under the concentration of 5 mM·L^−1) is reported as “stable”. The “Concentration in Brain” value ([2]; 1 h) was 0.95 ± 0.80 µg/g, the “Concentration in Liver” value ([2]; 1 h) was 3.01 ± 1.53 µg/g and the “Concentration in Reproductive organs” value ([2]; 1 h) was 0.88 ± 0.68 µg/g. The “Concentration in Fat” value ([2]; 4 h) was 5.20 ± 3.47 µg/g, the “Concentration in Liver” value ([2]; 4 h) was 1.64 ± 1.09 µg/g and the “Concentration in Reproductive organs” value ([2]; 4 h) was 2.29 ± 1.80 µg/g. For the same compound, the “Concentration in Fat” value ([2]; 8 h) was 11.15 ± 8.87 µg/g, the “Concentration in Kidney” value ([2]; 8 h) was 1.66 ± 0.74 µg/g and the “Concentration in Reproductive organs” value ([2]; 8 h) was 23.90 ± 11.33 µg/g. The “Concentration in Kidney” value ([2]; 12 h) was 8.16 ± 6.23 µg/g, the “Concentration in Lung” value ([2]; 12 h) was 2.34 ± 1.91 µg/g and the “Concentration in Reproductive organs” value ([2]; 12 h) was 13.69 ± 10.29 µg/g. The “Concentration in Reproductive organs” value ([2]; 20 h) was 1.46 ± 1.23 µg/g, the “Concentration in Reproductive organs” value ([2]; 30 h) was 0.36 ± 0.46 µg/g and the concentration at 1 h ([2]; brain, 1 h, read-out: Concentration in Brain) was 950 ± 800 ng/g. For the same compound, the concentration at 4 h ([2]; brain, 4 h, read-out: Concentration in Brain) was 480 ± 330 ng/g, the concentration at 8 h ([2]; brain, 8 h, read-out: Concentration in Brain) was 500 ± 150 ng/g and the concentration at 12 h ([2]; brain, 12 h, read-out: Concentration in Brain) was 180 ± 110 ng/g. The concentration at 20 h ([2]; brain, 20 h, read-out: Concentration in Brain) was 100 ± 50 ng/g, the concentration at 30 h ([2]; brain, 30 h, read-out: Concentration in Brain) was 10 ± 4 ng/g and the concentration at 1 h ([2]; fat (white adipose tissue), 1 h, read-out: Concentration in Fat) was 740 ± 410 ng/g. The concentration at 4 h ([2]; fat (white adipose tissue), 4 h, read-out: Concentration in Fat) was 5200 ± 3470 ng/g, the concentration at 8 h ([2]; fat (white adipose tissue), 8 h, read-out: Concentration in Fat) was 11200 ± 8870 ng/g and the concentration at 12 h ([2]; fat (white adipose tissue), 12 h, read-out: Concentration in Fat) was 740 ± 700 ng/g. For the same compound, the concentration at 20 h ([2]; fat (white adipose tissue), 20 h, read-out: Concentration in Fat) was 340 ± 250 ng/g, the concentration at 30 h ([2]; fat (white adipose tissue), 30 h, read-out: Concentration in Fat) was 180 ± 160 ng/g and the concentration at 1 h ([2]; heart, 1 h, read-out: Concentration in Heart) was 60 ± 37 ng/g. For the same compound, the concentration at 4 h ([2]; heart, 4 h, read-out: Concentration in Heart) was 850 ± 510 ng/g, the concentration at 8 h ([2]; heart, 8 h, read-out: Concentration in Heart) was 670 ± 480 ng/g and the concentration at 12 h ([2]; heart, 12 h, read-out: Concentration in Heart) was 640 ± 300 ng/g. It also gave a concentration at 20 h ([2]; heart, 20 h, read-out: Concentration in Heart) of 40 ± 20 ng/g, a concentration at 30 h ([2]; heart, 30 h, read-out: Concentration in Heart) of 80 ± 10 ng/g and a concentration at 1 h ([2]; kidney, 1 h, read-out: Concentration in Kidney) of 110 ± 60 ng/g. The concentration at 4 h ([2]; kidney, 4 h, read-out: Concentration in Kidney) was 1630 ± 920 ng/g, the concentration at 8 h ([2]; kidney, 8 h, read-out: Concentration in Kidney) was 1660 ± 740 ng/g and the concentration at 12 h ([2]; kidney, 12 h, read-out: Concentration in Kidney) was 8160 ± 6230 ng/g. The concentration at 20 h ([2]; kidney, 20 h, read-out: Concentration in Kidney) was 390 ± 90 ng/g, the concentration at 30 h ([2]; kidney, 30 h, read-out: Concentration in Kidney) was 70 ± 10 ng/g and the concentration at 1 h ([2]; liver, 1 h, read-out: Concentration in Liver) was 3010 ± 1530 ng/g. The concentration at 4 h ([2]; liver, 4 h, read-out: Concentration in Liver) was 1640 ± 1090 ng/g, the concentration at 8 h ([2]; liver, 8 h, read-out: Concentration in Liver) was 180 ± 220 ng/g and the concentration at 12 h ([2]; liver, 12 h, read-out: Concentration in Liver) was 490 ± 370 ng/g. For the same compound, the concentration at 20 h ([2]; liver, 20 h, read-out: Concentration in Liver) was 60 ± 50 ng/g, the concentration at 30 h ([2]; liver, 30 h, read-out: Concentration in Liver) was 10 ± 10 ng/g and the concentration at 1 h ([2]; lung, 1 h, read-out: Concentration in Lung) was 430 ± 180 ng/g.
